# According to PubChem BioAssay (NCI):
#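 96-well plates; 48 h exposure; 5 concentrations. Endpoints by linear interpolation between flanking doses. Not reached: highest tested concentration assigned. TGI denotes the concentration required for complete inhibition of growth.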
# What was measured:
# Assay in all cases: NCI anticancer screen, dose series, 48 h
# 786-0 renal = test system: 786-0 renal
# A498 renal = test system: A498 renal
# A549 NSCLC = test system: A549 NSCLC
# ACHN renal = test system: ACHN renal
# CAKI-1 renal = test system: CAKI-1 renal
# CCRF-CEM leukemia = test system: CCRF-CEM leukemia
# COLO 205 colon = test system: COLO 205 colon
# DLD-1 colon = test system: DLD-1 colon
# DMS 114 small cell lung = test system: DMS 114 small cell lung
# DMS 273 small cell lung = test system: DMS 273 small cell lung
# EKVX NSCLC = test system: EKVX NSCLC
# HCT-116 colon = test system: HCT-116 colon
# HCT-15 colon = test system: HCT-15 colon
# HL-60(TB) leukemia = test system: HL-60(TB) leukemia
# HOP-18 NSCLC = test system: HOP-18 NSCLC
# HOP-62 NSCLC = test system: HOP-62 NSCLC
# HOP-92 NSCLC = test system: HOP-92 NSCLC
# HT29 colon = test system: HT29 colon
# IGROV1 ovarian = test system: IGROV1 ovarian
# K-562 leukemia = test system: K-562 leukemia
# KM12 colon = test system: KM12 colon
# KM20L2 colon = test system: KM20L2 colon
# LOX IMVI melanoma = test system: LOX IMVI melanoma
# LXFL 529 NSCLC = test system: LXFL 529 NSCLC
# M14 melanoma = test system: M14 melanoma
# M19-MEL melanoma = test system: M19-MEL melanoma
# MALME-3M melanoma = test system: MALME-3M melanoma
# MOLT-4 leukemia = test system: MOLT-4 leukemia
# NCI-H23 lung = test system: NCI-H23 lung
# NCI-H460 lung = test system: NCI-H460 lung
# NCI-H522 lung = test system: NCI-H522 lung
# OVCAR-3 ovarian = test system: OVCAR-3 ovarian
# OVCAR-4 ovarian = test system: OVCAR-4 ovarian
# OVCAR-5 ovarian = test system: OVCAR-5 ovarian
# OVCAR-8 ovarian = test system: OVCAR-8 ovarian
# RPMI-8226 leukemia = test system: RPMI-8226 leukemia
# RXF 393 renal = test system: RXF 393 renal
# RXF-631 renal = test system: RXF-631 renal
# SF-268 CNS = test system: SF-268 CNS
# SF-295 CNS = test system: SF-295 CNS
# SF-539 CNS = test system: SF-539 CNS
# SK-MEL-2 melanoma = test system: SK-MEL-2 melanoma
# SK-MEL-28 melanoma = test system: SK-MEL-28 melanoma
# SK-MEL-5 melanoma = test system: SK-MEL-5 melanoma
# SK-OV-3 ovarian = test system: SK-OV-3 ovarian
# SN12C renal = test system: SN12C renal
# SNB-19 CNS = test system: SNB-19 CNS
# SNB-75 CNS = test system: SNB-75 CNS
# SNB-78 CNS = test system: SNB-78 CNS
# SW-620 colon = test system: SW-620 colon
# TK-10 renal = test system: TK-10 renal
# U251 CNS = test system: U251 CNS
# UACC-257 melanoma = test system: UACC-257 melanoma
# UACC-62 melanoma = test system: UACC-62 melanoma
# UO-31 renal = test system: UO-31 renal
# XF 498 CNS = test system: XF 498 CNS
smiles,measurement,setting,value
O=C(CC1(O)C(=O)Nc2c(Cl)cc(Cl)cc21)c1ccc2ccccc2c1 (stereo unspecified),TGI,786-0 renal,23.8 µM
same,TGI,A498 renal,24.8 µM
same,TGI,A549 NSCLC,18.2 µM
same,TGI,ACHN renal,28.7 µM
same,TGI,CAKI-1 renal,19.8 µM
same,TGI,CCRF-CEM leukemia,39 µM
same,TGI,COLO 205 colon,21.6 µM
same,TGI,DLD-1 colon,26.7 µM
same,TGI,DMS 114 small cell lung,17.8 µM
same,TGI,DMS 273 small cell lung,15.2 µM
same,TGI,EKVX NSCLC,23.4 µM
same,TGI,HCT-116 colon,13.4 µM
same,TGI,HCT-15 colon,14.2 µM
same,TGI,HL-60(TB) leukemia,14.6 µM
same,TGI,HOP-18 NSCLC,26.1 µM
same,TGI,HOP-62 NSCLC,20.8 µM
same,TGI,HOP-92 NSCLC,36.2 µM
same,TGI,HT29 colon,18.5 µM
same,TGI,IGROV1 ovarian,23.1 µM
same,TGI,K-562 leukemia,18.3 µM
same,TGI,KM12 colon,18.8 µM
same,TGI,KM20L2 colon,11.4 µM
same,TGI,LOX IMVI melanoma,24.3 µM
same,TGI,LXFL 529 NSCLC,21.3 µM
same,TGI,M14 melanoma,16.6 µM
same,TGI,M19-MEL melanoma,16.3 µM
same,TGI,MALME-3M melanoma,19.7 µM
same,TGI,MOLT-4 leukemia,27.8 µM
same,TGI,NCI-H23 lung,22.3 µM
same,TGI,NCI-H460 lung,18.1 µM
same,TGI,NCI-H522 lung,10.9 µM
same,TGI,OVCAR-3 ovarian,18.6 µM
same,TGI,OVCAR-4 ovarian,26.4 µM
same,TGI,OVCAR-5 ovarian,30.3 µM
same,TGI,OVCAR-8 ovarian,26 µM
same,TGI,RPMI-8226 leukemia,29.8 µM
same,TGI,RXF 393 renal,20.9 µM
same,TGI,RXF-631 renal,20.6 µM
same,TGI,SF-268 CNS,31.8 µM
same,TGI,SF-295 CNS,21.3 µM
same,TGI,SF-539 CNS,21 µM
same,TGI,SK-MEL-2 melanoma,16.3 µM
same,TGI,SK-MEL-28 melanoma,24.3 µM
same,TGI,SK-MEL-5 melanoma,18.8 µM
same,TGI,SK-OV-3 ovarian,24.6 µM
same,TGI,SN12C renal,22.9 µM
same,TGI,SNB-19 CNS,25.4 µM
same,TGI,SNB-75 CNS,13.5 µM
same,TGI,SNB-78 CNS,36.5 µM
same,TGI,SW-620 colon,14.7 µM
same,TGI,TK-10 renal,27.9 µM
same,TGI,U251 CNS,18.7 µM
same,TGI,UACC-257 melanoma,27.1 µM
same,TGI,UACC-62 melanoma,14.6 µM
same,TGI,UO-31 renal,24.5 µM
same,TGI,XF 498 CNS,25.2 µM
